Reference: patent EP4775568A1, “NOVEL COMPOUND AND USE THEREOF FOR TREATING PSORIASIS” (Gwangju Institute of Science and Technology, priority 2023, dated 2025)
pIC50: −log10 of the molar value.

Molecular target: T1, CMKLR1 (Homo sapiens, UniProt Q99788)
T1 construct: expressed in transfected cells; host or cells: CHO-K1 cells expressing Gα-16 (CHO-Ga16-CMKLR1)
T1 sequence (Q99788 1-373): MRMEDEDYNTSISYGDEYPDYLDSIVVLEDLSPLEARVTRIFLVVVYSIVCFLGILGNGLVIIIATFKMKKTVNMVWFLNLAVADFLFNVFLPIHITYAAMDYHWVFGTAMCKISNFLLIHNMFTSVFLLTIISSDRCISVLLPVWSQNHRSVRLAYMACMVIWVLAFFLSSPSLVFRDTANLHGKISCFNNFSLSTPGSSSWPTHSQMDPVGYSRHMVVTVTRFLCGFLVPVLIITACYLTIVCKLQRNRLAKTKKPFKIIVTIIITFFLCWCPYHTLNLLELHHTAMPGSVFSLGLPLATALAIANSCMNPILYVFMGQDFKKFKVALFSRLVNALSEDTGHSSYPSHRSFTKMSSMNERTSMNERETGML
Test: Calcium mobilization assay (CHO-Ga16-CMKLR1 cells, chemerin-9 induced signal)
Format: cell-based
Details: for pIC50: calcium signal induced by 2.5 nM chemerin-9; for inhibition at 10 µM: read-out: CMKLR1 activity in CHO cells (% inhibition at 10 µM), 10 µM compound, relative to calcium signal induced by 2.5 nM chemerin-9
Experimental: To establish a CMKLR1 calcium mobilization cell evaluation system, CHO-K1 cells expressing Gα-16 were transfected with pcDNA3.1-derived human CMKLR1-expressing plasmids using Lipofectamine 2000 (Invitrogen, Waltham, Massachusetts, USA). […] The established cell line (CHO-Ga16-CMKLR1) was cultured in F-12 medium (Invitrogen) supplemented with 10% (v/v) fetal bovine serum (FBS; Invitrogen), 0.5 mg/mL geneticin, 0.2 mg/mL hygromycin B (Clontech), and 1% (v/v) antibiotic-antimycotic solution (Invitrogen) under 5% CO2 at 37°C.
100 µL/well was added to a 96-well plate (Corning) and incubated for 24 h. The buffer solution was prepared by adding 1 M HEPES solution to Hanks' Balanced Salt Solution (HBSS) (Invitrogen) and adjusting the pH to 7.4 by dropwise addition of 1 M NaOH.
The fluorescent dye solution was prepared using the buffer provided with the Calcium 5 Assay Kit (Molecular Devices). 40 µL/well of dye solution was added to each well and incubated at 37°C in a 5% CO2 atmosphere for 30 min. […] The final DMSO concentration was adjusted to 2%. 40 µL of each compound solution was added to the well and incubated for 30 min. […] Prism 5 software (GraphPad) was then used to obtain IC50 values for various compounds. IC50 values were derived based on concentration-response curves, and all experiments were repeated at least three times.

SMILES | pIC50 (Table 4, IC50 class) | pIC50 (Table 2, IC50 class) | further results
C[C@@H](CC(=O)O)c1ccc(OCc2ccc3c(-c4ccc(C(=O)O)cc4F)nn(C4CCCC4)c3c2)cc1 [Compound 52, (S)-4-(6-((4-(1-carboxypropan-2-yl)phenoxy)methyl)-1-cyclopentyl-1H-indazol-3-yl)-3-fluorobenzoic acid] | 6.00 to 7.00 | – | –
CC(CC(=O)O)c1ccc(OCc2ccc3c(-c4cc5ccccc5s4)nn(C4CCCC4)c3c2)cc1 (centres unmarked) [Compound 25, 3-(4-((3-(benzo[b]thiophen-2-yl)-1-cyclopentyl-1H-indazol-6-yl)methoxy)phenyl)butanoic acid] | – | < 6.00 | –
CC(CC(=O)O)c1ccc(OCc2ccc3c(-c4cc(Cl)c(O)c(Cl)c4)nn(C4CCCC4)c3c2)cc1 (centres unmarked) [Compound 20, 3-(4-((1-cyclopentyl-3-(3,5-dichloro-4-hydroxyphenyl)-1H-indazol-6-yl)methoxy)phenyl)butanoic acid] | – | 6.00 to 7.00 | –
CC(CC(=O)O)c1ccc(OCc2ccc3c(-c4nnn[nH]4)nn(C4CCCC4)c3c2)cc1 (centres unmarked) [Compound 32, 3-(4-((1-cyclopentyl-3-(1H-tetrazol-5-yl)-1H-indazol-6-yl)methoxy)phenyl)butanoic acid] | – | – | pIC50 (Table 3, IC50 class): < 6.00
CCC(CC)Oc1ccc(-c2nn(C3CCCC3)c3cc(COc4ccc(C(C)CC(=O)O)cc4)ccc23)cc1 (centres unmarked) [Compound 27, 3-(4-((1-cyclopentyl-3-(4-(pentan-3-yloxy)phenyl)-1H-indazol-6-yl)methoxy)phenyl)butanoic acid] | – | < 6.00 | –
CC(CC(=O)O)c1ccc(OCc2ccc3c(-c4ccc(-c5ccccc5)cc4)nn(C4CCCC4)c3c2)cc1 (centres unmarked) [Compound 24, 3-(4-((3-([1,1'-biphenyl]-4-yl)-1-cyclopentyl-1H-indazol-6-yl)methoxy)phenyl)butanoic acid] | – | < 6.00 | –
CC(CC(=O)O)c1ccc(OCc2ccc3c(-c4cccc(O)c4)nn(C4CCCC4)c3c2)cc1 (centres unmarked) [Compound 14, 3-(4-((1-cyclopentyl-3-(3-hydroxyphenyl)-1H-indazol-6-yl)methoxy)phenyl)butanoic acid] | – | < 6.00 | –
CC(CC(=O)O)c1ccc(OCc2ccc3c(-c4ccccc4)nn(Cc4ccccc4)c3c2)cc1 (centres unmarked) [Compound 85] | – | – | inhibition at 10 µM: 23%
Cc1ccc(-c2nn(C3CCCC3)c3cc(COc4ccc(C(C)CC(=O)O)cc4)ccc23)cc1 (centres unmarked) [Compound 11, 3-(4-((1-cyclopentyl-3-(p-tolyl)-1H-indazol-6-yl)methoxy)phenyl)butanoic acid] | – | < 6.00 | –
CC(C)n1nc(-c2ccccc2)c2ccc(COc3ccc(CC(C)(C)C(=O)O)cc3)cc21 [Compound 3, 3-(4-((1-isopropyl-3-phenyl-1H-indazol-6-yl)methoxy)phenyl)-2,2-dimethylpropanoic acid] | – | – | inhibition at 10 µM: 10%
C[C@@H](CC(=O)O)c1ccc(OCc2ccc3c(-c4ccc(O)c(F)c4F)nn(C4CCCC4)c3c2)cc1 [Compound 55, (S)-3-(4-((1-cyclopentyl-3-(2,3-difluoro-4-hydroxyphenyl)-1H-indazol-6-yl)methoxy)phenyl)butanoic acid] | < 6.00 | – | –
CC(=O)Nc1ccc(-c2nn(C3CCCC3)c3cc(COc4ccc(C(C)CC(=O)O)cc4)ccc23)cc1 (centres unmarked) [Compound 61, 3-(4-((3-(4-acetamidophenyl)-1-cyclopentyl-1H-indazol-6-yl)methoxy)phenyl)butanoic acid] | < 6.00 | – | –
Cc1cc(-c2nn(C3CCCC3)c3cc(COc4ccc([C@@H](C)CC(=O)O)cc4)ccc23)cc(C)c1O [Compound 53, (S)-3-(4-((1-cyclopentyl-3-(4-hydroxy-3,5-dimethylphenyl)-1H-indazol-6-yl)methoxy)phenyl)butanoic acid] | 6.00 to 7.00 | – | –
CC(CC(=O)O)c1ccc(OCc2cnc3c(-c4cc(Cl)c(O)c(Cl)c4)nn(C4CCCC4)c3c2)cc1 (centres unmarked) [Compound 73, 3-(4-((1-cyclopentyl-3-(3,5-dichloro-4-hydroxyphenyl)-1H-pyrazolo[4,3-b]pyridin-6-yl)methoxy)phenyl)butanoic acid] | 6.00 to 7.00 | – | –
CC(CC(=O)O)c1ccc(OCc2ccc3c(-c4ccc5c(c4)OCO5)nn(C4CCCC4)c3c2)cc1 (centres unmarked) [Compound 31, 3-(4-((3-(Benzo[d][1,3]dioxol-5-yl)-1-cyclopentyl-1H-indazol-6-yl)methoxy)phenyl)butanoic acid] | – | – | pIC50 (Table 3, IC50 class): < 6.00
CC(CC(=O)O)c1ccc(OCc2cnc3c(-c4ccc(O)cc4)nn(C4CCCC4)c3c2)cc1 (centres unmarked) [Compound 72, 3-(4-((1-cyclopentyl-3-(4-hydroxyphenyl)-1H-pyrazolo[4,3-b]pyridin-6-yl)methoxy)phenyl)butanoic acid] | 6.00 to 7.00 | – | –
CCOc1ccc(-c2nn(C3CCCC3)c3cc(COc4ccc(C(C)CC(=O)O)cc4)ccc23)cc1 (centres unmarked) [Compound 29, 3-(4-((1-cyclopentyl-3-(4-ethoxyphenyl)-1H-indazol-6-yl)methoxy)phenyl)butanoic acid] | – | < 6.00 | –
CCCn1nc(-c2ccccc2)c2ccc(COc3ccc(C(C)CC(=O)O)cc3)cc21 (centres unmarked) [Compound 79, 3-(4-((3-phenyl-1-propyl-1H-indazol-6-yl)methoxy)phenyl)butanoic acid] | – | – | inhibition at 10 µM: 60%
CC(CC(=O)O)c1ccc(OCc2ccc3c(-c4ccc(N)cc4)nn(C4CCCC4)c3c2)cc1 (centres unmarked) [Compound 59, 3-(4-((3-(4-aminophenyl)-1-cyclopentyl-1H-indazol-6-yl)methoxy)phenyl)butanoic acid] | < 6.00 | – | –
CC(CC(=O)O)c1ccc(OCc2ccc3c(-c4ccccc4)nn(CC4CC4)c3c2)cc1 (centres unmarked) [Compound 81, 3-(4-((1-(cyclopropylmethyl)-3-phenyl-1H-indazol-6-yl)methoxy)phenyl)butanoic acid] | – | – | inhibition at 10 µM: 35%
CC(C)C(CC(=O)O)c1ccc(OCc2ccc3c(-c4ccccc4)nn(C(C)C)c3c2)cc1 (centres unmarked) [Compound 8, 3-(4-((1-isopropyl-3-phenyl-1H-indazol-6-yl)methoxy)phenyl)-4-methylpentanoic acid] | – | – | inhibition at 10 µM: 25%
C[C@@H](CC(=O)O)c1ccc(OCc2ccc3c(-c4cc(Cl)c(O)cc4Cl)nn(C4CCCC4)c3c2)cc1 [Compound 46, (S)-3-(4-((1-cyclopentyl-3-(2,5-dichloro-4-hydroxyphenyl)-1H-indazol-6-yl)methoxy)phenyl)butanoic acid] | – | – | pIC50 (Table 3, IC50 class): 6.00 to 7.00
CC(CC(=O)O)c1ccc(OCc2ccc3c(-c4cc(C(F)(F)F)cc(C(F)(F)F)c4)nn(C4CCCC4)c3c2)cc1 (centres unmarked) [Compound 22, 3-(4-((3-(3,5-bis(trifluoromethyl)phenyl)-1-cyclopentyl-1H-indazol-6-yl)methoxy)phenyl)butanoic acid] | – | < 6.00 | –
